Key:
Format in all cases: in vivo
Kochia (Kochia scoparia) [1] = assay: Test A preemergence; details: for Plant response rating, Kochia: 125 g ai/ha, preemergence, 0 to 100 scale (0 no effect, 100 complete control)
In short: (§1)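 Greenhouse, ~10 d after spray; visual injury vs untreated controls, 0 = no effect, 100 = complete control. Preemergence: directed soil spray over planted seeds. Postemergence: plants 2–10 cm, 1–2 leaf stage. Loam/sand blend. Compound in non-phytotoxic solvent with surfactant.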

[2] = tested on: barnyardgrass (Echinochloa crus-galli); assay: Test A preemergence; details: for Plant response rating, Barnyardgrass: 125 g ai/ha, preemergence, 0 to 100 scale (0 no effect, 100 complete control)
In short: as §1

[3] = tested on: giant foxtail (Setaria faberii); assay: Test A preemergence; details: for Plant response rating, Foxtail, Giant: 125 g ai/ha, preemergence, 0 to 100 scale (0 no effect, 100 complete control)
In short: as §1

[4] = tested on: pigweed (Amaranthus retroflexus); assay: Test A preemergence; details: for Plant response rating, Pigweed: 125 g ai/ha, preemergence, 0 to 100 scale (0 no effect, 100 complete control)
[5] = tested on: ragweed (common ragweed, Ambrosia elatior); assay: Test A preemergence; details: for Plant response rating, Ragweed: 125 g ai/ha, preemergence, 0 to 100 scale (0 no effect, 100 complete control)
In short: as §1

[6] = tested on: ryegrass, Italian (Italian ryegrass, Lolium multiflorum); assay: Test A preemergence; details: for Plant response rating, Ryegrass, Italian: 125 g ai/ha, preemergence, 0 to 100 scale (0 no effect, 100 complete control)
In short: as §1

[7] = tested on: Galium (catchweed bedstraw, Galium aparine); assay: Test A postemergence; details: postemergence; for Galium plant response rating: 125 g ai/ha, visual injury rating on 0 to 100 scale (0 no effect, 100 complete control), approx. 10 d; for Plant response rating, Galium: 500 g ai/ha, 0 to 100 scale, 0 no effect, 100 complete control
In short: as §1

Kochia (Kochia scoparia) [8] = assay: Test A postemergence; details: postemergence; for Kochia plant response rating: 125 g ai/ha, visual injury rating on 0 to 100 scale (0 no effect, 100 complete control), approx. 10 d; for Plant response rating, Kochia: 500 g ai/ha, 0 to 100 scale, 0 no effect, 100 complete control
In short: as §1

[9] = tested on: barnyardgrass (Echinochloa crus-galli); assay: Test A postemergence
In short: as §1

[10] = tested on: blackgrass (Alopecurus myosuroides); assay: Test A postemergence
In short: as §1

corn (Zea mays) = assay: Test A postemergence; details: postemergence; for Corn plant response rating: 125 g ai/ha, visual injury rating on 0 to 100 scale (0 no effect, 100 complete control), approx. 10 d; for Plant response rating, Corn: 500 g ai/ha, 0 to 100 scale, 0 no effect, 100 complete control
In short: as §1

[11] = tested on: giant foxtail (Setaria faberii); assay: Test A postemergence; details: postemergence; for Foxtail, Giant plant response rating: 125 g ai/ha, visual injury rating on 0 to 100 scale (0 no effect, 100 complete control), approx. 10 d; for Plant response rating, Foxtail, Giant: 500 g ai/ha, 0 to 100 scale, 0 no effect, 100 complete control
In short: as §1

[12] = tested on: pigweed (Amaranthus retroflexus); assay: Test A postemergence; details: postemergence; for Pigweed plant response rating: 125 g ai/ha, visual injury rating on 0 to 100 scale (0 no effect, 100 complete control), approx. 10 d; for Plant response rating, Pigweed: 500 g ai/ha, 0 to 100 scale, 0 no effect, 100 complete control
In short: as §1

[13] = tested on: ragweed (common ragweed, Ambrosia elatior); assay: Test A postemergence; details: postemergence; for Ragweed plant response rating: 125 g ai/ha, visual injury rating on 0 to 100 scale (0 no effect, 100 complete control), approx. 10 d; for Plant response rating, Ragweed: 500 g ai/ha, 0 to 100 scale, 0 no effect, 100 complete control
In short: as §1

[14] = tested on: ryegrass, Italian (Italian ryegrass, Lolium multiflorum); assay: Test A postemergence; details: postemergence; for Ryegrass, Italian plant response rating: 125 g ai/ha, visual injury rating on 0 to 100 scale (0 no effect, 100 complete control), approx. 10 d; for Plant response rating, Ryegrass, Italian: 500 g ai/ha, 0 to 100 scale, 0 no effect, 100 complete control
In short: as §1

[15] = tested on: wheat (Triticum aestivum); assay: Test A postemergence; details: postemergence; for Wheat plant response rating: 125 g ai/ha, visual injury rating on 0 to 100 scale (0 no effect, 100 complete control), approx. 10 d; for Plant response rating, Wheat: 500 g ai/ha, 0 to 100 scale, 0 no effect, 100 complete control
In short: as §1

[16] = tested on: barnyardgrass (Echinochloa crus-galli); assay: Test B flooded paddy test; details: Flood, 250 g ai/ha; 0 to 100 scale where 0 is no effect and 100 is complete control; 13 to 15 d
In short: (§2)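 Plants at 2-leaf stage flooded to 3 cm above soil, with compounds applied directly to paddy water and that depth maintained. Plants kept in greenhouse 13–15 d. Visual rating versus controls on a 0 (no effect) to 100 (complete control) scale.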

[17] = tested on: ducksalad (Heteranthera limosa); assay: Test B flooded paddy test; details: Flood, 250 g ai/ha; 0 to 100 scale where 0 is no effect and 100 is complete control; 13 to 15 d
In short: as §2

rice (Oryra sativa) = assay: Test B flooded paddy test; details: Flood, 250 g ai/ha; 0 to 100 scale where 0 is no effect and 100 is complete control; 13 to 15 d
In short: as §2

[18] = tested on: sedge, umbrella (small-flower umbrella sedge, Cyperus difformis); assay: Test B flooded paddy test; details: Flood, 250 g ai/ha; 0 to 100 scale where 0 is no effect and 100 is complete control; 13 to 15 d
In short: as §2

[19] = tested on: pigweed (Amaranthus retroflexus); assay: Test C preemergence; details: scale 0 to 100, 0 no effect, 100 complete control
Text: Seeds of plant species selected from blackgrass (Alopecurus myosuroides), ryegrass, Italian (Italian ryegrass, Lolium multiflorum), wheat (winter wheat, Triticum aestivum), Galium (catchweed bedstraw, Galium aparine), corn (Zea mays), crabgrass, large (large crabgrass, Digitaria sanguinalis), foxtail, giant (giant foxtail, Setaria faberii), johnsongrass (Sorghum halepense), lambsquarters (Chenopodium album), morningglory (Ipomoea coccinea), nutsedge, yellow (yellow nutsedge, Cyperus esculentus), pigweed (Amaranthus retroflexus), ragweed (common ragweed, Ambrosia elatior), soybean (Glycine max), barnyardgrass (Echinochloa crus-galli), oilseed rape (Brassica napus), waterhemp (common waterhemp, Amaranthus rudis) and velvetleaf (Abutilon theophrasti) were planted into a blend of loam soil and sand and treated preemergence with test chemicals formulated in a non-phytotoxic solvent mixture which included a surfactant.
At the same time, plants selected from these crop and weed species and also Kochia (Kochia scoparia), oat, wild (wild oat, Avena fatua), and chickweed (common chickweed, Stellaria media) were planted in pots containing Sunshine Redi-Earth® planting medium comprising spaghnum peat moss, vermiculite, starter nutrients and dolomitic limestone and treated with postemergence applications of test chemicals formulated in the same manner. Plants ranged in height from 2 to 18 cm (1- to 4-leaf stage) for postemergence treatments. Treated plants and controls were maintained in a greenhouse for 13 to 15 d, after which time all species were compared to controls and visually evaluated. Plant response ratings, summarized in Table C, are based on a scale of 0 to 100 where 0 is no effect and 100 is complete control. A dash (-) response means no test result.

[20] = Preemergence, 500 g ai/ha, 0 is no effect, 100 is complete control
[21] = 500 g ai/ha, postemergence, 0 to 100 scale, 0 no effect, 100 complete control
[22] = Postemergence, 125 g ai/ha, visual injury, 0 to 100 scale (0 no effect, 100 complete control), approx. 10 d
[23] = Preemergence, 500 g ai/ha, visual injury approx. 10 d
[24] = 125 g ai/ha, postemergence, visual injury rating on 0 to 100 scale (0 no effect, 100 complete control), approx. 10 d

| SMILES | Plant response rating, Kochia (Kochia (Kochia scoparia) [1]) | Plant response rating, Barnyardgrass [2] | Plant response rating, Foxtail, Giant [3] | Plant response rating, Pigweed [4] | Plant response rating, Ragweed [5] | Plant response rating, Ryegrass, Italian [6] | Galium plant response rating [7] | Plant response rating, Galium [7] | Kochia plant response rating (Kochia (Kochia scoparia) [8]) | Plant response rating, Kochia (Kochia (Kochia scoparia) [8]) | Plant response rating, Barnyardgrass [9, 21] | Plant response rating, Blackgrass [10, 21] | Corn plant response rating (corn (Zea mays)) | Plant response rating, Corn (corn (Zea mays)) | Foxtail, Giant plant response rating [11] | Plant response rating, Foxtail, Giant [11] | Pigweed plant response rating [12] | Plant response rating, Pigweed [12] | Ragweed plant response rating [13] | Plant response rating, Ragweed [13] | further results |
| --- | --- | --- | --- | --- | --- | --- | --- | --- | --- | --- | --- | --- | --- | --- | --- | --- | --- | --- | --- | --- | --- |
| CN1CC(c2cccc(OC(F)(F)C(F)F)c2)C(C(=O)Nc2ccc(F)cc2F)C1=O (stereo not shown) [Compound 393] | 60 | 90 | 90 | 50 | 0 | 20 | 70 | 70 | 60 | 60 | 90 | 70 | 80 | 80 | 90 | 90 | 50 | 70 | 0 | 0 | Kochia plant response rating (0 to 100 scale) (Kochia (Kochia scoparia) [1]; [20]): 50; Barnyardgrass plant response rating (0 to 100 scale) [2, 20]: 90; Foxtail, Giant plant response rating (0 to 100 scale) [3, 20]: 90; Pigweed plant response rating (0 to 100 scale) [4, 20]: 70; Ragweed plant response rating (0 to 100 scale) [5, 20]: 70; Ryegrass, Italian plant response rating (0 to 100 scale) [6, 20]: 50; Plant response rating, Barnyardgrass [9, 22]: 80; Plant response rating, Blackgrass [10, 22]: 60; Ryegrass, Italian plant response rating [14]: 40; Plant response rating, Ryegrass, Italian [14]: 70; Wheat plant response rating [15]: 20; Plant response rating, Wheat [15]: 70; Plant response rating, Barnyardgrass [16]: 65; Plant response rating, Ducksalad [17]: 90; Plant response rating, Rice (rice (Oryra sativa)): 0; Plant response rating, Sedge, Umbrella [18]: 0; Plant response rating, Pigweed ([19]; 31 g ai/ha): 70; Plant response rating, Pigweed ([19]; 62 g ai/ha): 75; Plant response rating, Pigweed ([19]; 125 g ai/ha): 85; Plant response rating, Pigweed ([19]; 250 g ai/ha): 90 |
| CN1CC(c2cccc(C(F)(F)F)c2)C(C)(C(=O)Nc2ccccc2F)C1=O (stereo not shown) [Compound 428] | 50 | 90 | 90 | 0 | 0 | 20 | 50 | 60 | 30 | 70 | 90 | 70 | 30 | 60 | 80 | 90 | 0 | 20 | 0 | 0 | Kochia plant response rating (0 to 100 scale, 0 is no effect, 100 is complete control) (Kochia (Kochia scoparia) [1]; [23]): 50; Barnyardgrass plant response rating (0 to 100 scale, 0 is no effect, 100 is complete control) [2, 23]: 90; Foxtail, Giant plant response rating (0 to 100 scale, 0 is no effect, 100 is complete control) [3, 23]: 90; Pigweed plant response rating (0 to 100 scale, 0 is no effect, 100 is complete control) [4, 23]: 20; Ragweed plant response rating (0 to 100 scale, 0 is no effect, 100 is complete control) [5, 23]: 0; Ryegrass, Italian plant response rating (0 to 100 scale, 0 is no effect, 100 is complete control) [6, 23]: 30; Barnyardgrass plant response rating [9, 24]: 90; Blackgrass plant response rating [10, 24]: 40; Ryegrass, Italian plant response rating [14]: 30; Plant response rating, Ryegrass, Italian [14]: 30; Wheat plant response rating [15]: 30; Plant response rating, Wheat [15]: 60; Plant response rating, Pigweed ([19]; 31 g ai/ha): 10; Plant response rating, Pigweed ([19]; 62 g ai/ha): 0; Plant response rating, Pigweed ([19]; 125 g ai/ha): 0; Plant response rating, Pigweed ([19]; 250 g ai/ha): 40 |

— US12077503B2, “Substituted cyclic amides and their use as herbicides” (FMC CORPORATION, priority 2015, dated 2024)
